Results reported in US12162840B2, “Herbicidal compositions” (SYNGENTA PARTICIPATIONS AG, priority 2018, dated 2024).

Tested on: cool season plant species
Test: B2 Post-emergence efficacy Test 2, cool season plant species
Type: in vivo
Settings: 15 days after application, 0=no damage, 100=total kill
Method: Seeds of a variety of test species (see Table B1) were sown in standard soil in pots. After cultivation for 12 days (post-emergence) under controlled conditions in a glasshouse (at 24/18° C. or 20/16° C., at day/night; 16 hours light; 65% humidity), the plants were sprayed with an aqueous spray solution derived from the formulation of the technical active ingredient dissolved in IF50 (see Table B2 for composition) and adjuvant (Genapol XO80) was added to the spray solution at a rate of 0.2% v/v. [table] [table] After application, the test plants were grown in a glasshouse under controlled conditions (as above) and watered twice daily. Herbicidal activity was evaluated 15 days after application on a 0-100 scale. The results, where 0=no damage to test plant and 100=total kill of test plant are shown below in Tables 6 to 9.

SMILES: Cc1nn(C)c(=O)c(-c2c(F)ccc(Cl)c2CCc2ccc(Cl)cc2)c1OC(=O)C(C)C [Compound 1.089]
- Herbicidal activity (0-100 scale) ALOMY (15 g/Ha): 20
- Herbicidal activity (0-100 scale) ALOMY (30 g/Ha): 50
- Herbicidal activity (0-100 scale) ALOMY (60 g/Ha): 50
- Herbicidal activity (0-100 scale) ALOMY (125 g/Ha): 80
- Herbicidal activity (0-100 scale) ALOMY (250 g/Ha): 80
- Herbicidal activity (0-100 scale) ALOMY (500 g/Ha): 90
- Herbicidal activity (0-100 scale) AVEFA (15 g/Ha): 30
- Herbicidal activity (0-100 scale) AVEFA (30 g/Ha): 70
- Herbicidal activity (0-100 scale) AVEFA (60 g/Ha): 70
- Herbicidal activity (0-100 scale) AVEFA (125 g/Ha): 80
- Herbicidal activity (0-100 scale) AVEFA (250 g/Ha): 90
- Herbicidal activity (0-100 scale) AVEFA (500 g/Ha): 90
- Herbicidal activity (0-100 scale) BEAVA (15 g/Ha): 90
- Herbicidal activity (0-100 scale) BEAVA (30 g/Ha): 80
- Herbicidal activity (0-100 scale) BEAVA (60 g/Ha): 80
- Herbicidal activity (0-100 scale) BEAVA (125 g/Ha): 80
- Herbicidal activity (0-100 scale) BEAVA (250 g/Ha): 90
- Herbicidal activity (0-100 scale) BEAVA (500 g/Ha): 90
- Herbicidal activity (0-100 scale) BROTE (15 g/Ha): 0
- Herbicidal activity (0-100 scale) BROTE (30 g/Ha): 0
- Herbicidal activity (0-100 scale) BROTE (60 g/Ha): 10
- Herbicidal activity (0-100 scale) BROTE (125 g/Ha): 30
- Herbicidal activity (0-100 scale) BROTE (250 g/Ha): 60
- Herbicidal activity (0-100 scale) BROTE (500 g/Ha): 70
- Herbicidal activity (0-100 scale) BRSNN (15 g/Ha): 80
- Herbicidal activity (0-100 scale) BRSNN (30 g/Ha): 80
- Herbicidal activity (0-100 scale) BRSNN (60 g/Ha): 90
- Herbicidal activity (0-100 scale) BRSNN (125 g/Ha): 90
- Herbicidal activity (0-100 scale) BRSNN (250 g/Ha): 90
- Herbicidal activity (0-100 scale) BRSNN (500 g/Ha): 90
- Herbicidal activity (0-100 scale) CHEAL (15 g/Ha): 80
- Herbicidal activity (0-100 scale) CHEAL (30 g/Ha): 90
- Herbicidal activity (0-100 scale) CHEAL (60 g/Ha): 90
- Herbicidal activity (0-100 scale) CHEAL (125 g/Ha): 100
- Herbicidal activity (0-100 scale) CHEAL (250 g/Ha): 100
- Herbicidal activity (0-100 scale) CHEAL (500 g/Ha): 100
- Herbicidal activity (0-100 scale) GALAP (15 g/Ha): 10
- Herbicidal activity (0-100 scale) GALAP (30 g/Ha): 20
- Herbicidal activity (0-100 scale) GALAP (125 g/Ha): 30
- Herbicidal activity (0-100 scale) GALAP (250 g/Ha): 30
- Herbicidal activity (0-100 scale) GALAP (500 g/Ha): 90
- Herbicidal activity (0-100 scale) HORVW (15 g/Ha): 10
- Herbicidal activity (0-100 scale) HORVW (30 g/Ha): 10
- Herbicidal activity (0-100 scale) HORVW (60 g/Ha): 20
- Herbicidal activity (0-100 scale) HORVW (125 g/Ha): 20
- Herbicidal activity (0-100 scale) HORVW (250 g/Ha): 30
- Herbicidal activity (0-100 scale) HORVW (500 g/Ha): 60
- Herbicidal activity (0-100 scale) KCHSC (15 g/Ha): 10
- Herbicidal activity (0-100 scale) KCHSC (30 g/Ha): 20
- Herbicidal activity (0-100 scale) KCHSC (60 g/Ha): 50
- Herbicidal activity (0-100 scale) KCHSC (125 g/Ha): 60
- Herbicidal activity (0-100 scale) KCHSC (250 g/Ha): 60
- Herbicidal activity (0-100 scale) KCHSC (500 g/Ha): 60
- Herbicidal activity (0-100 scale) LOLPE (15 g/Ha): 40
- Herbicidal activity (0-100 scale) LOLPE (30 g/Ha): 70
- Herbicidal activity (0-100 scale) LOLPE (60 g/Ha): 80
- Herbicidal activity (0-100 scale) LOLPE (125 g/Ha): 90
- Herbicidal activity (0-100 scale) LOLPE (250 g/Ha): 90
- Herbicidal activity (0-100 scale) LOLPE (500 g/Ha): 90
- Herbicidal activity (0-100 scale) POAAN (15 g/Ha): 20
- Herbicidal activity (0-100 scale) POAAN (30 g/Ha): 40
- Herbicidal activity (0-100 scale) POAAN (60 g/Ha): 70
- Herbicidal activity (0-100 scale) POAAN (125 g/Ha): 90
- Herbicidal activity (0-100 scale) POAAN (250 g/Ha): 80
- Herbicidal activity (0-100 scale) POAAN (500 g/Ha): 70
- Herbicidal activity (0-100 scale) SINAR (15 g/Ha): 70
- Herbicidal activity (0-100 scale) SINAR (30 g/Ha): 80
- Herbicidal activity (0-100 scale) SINAR (60 g/Ha): 90
- Herbicidal activity (0-100 scale) SINAR (125 g/Ha): 90
- Herbicidal activity (0-100 scale) SINAR (250 g/Ha): 90
- Herbicidal activity (0-100 scale) SINAR (500 g/Ha): 90
- Herbicidal activity (0-100 scale) STEME (15 g/Ha): 90
- Herbicidal activity (0-100 scale) STEME (30 g/Ha): 90
- Herbicidal activity (0-100 scale) STEME (60 g/Ha): 90
- Herbicidal activity (0-100 scale) STEME (125 g/Ha): 90
- Herbicidal activity (0-100 scale) STEME (250 g/Ha): 90
- Herbicidal activity (0-100 scale) STEME (500 g/Ha): 90
- Herbicidal activity (0-100 scale) TRZAW (15 g/Ha): 0
- Herbicidal activity (0-100 scale) TRZAW (30 g/Ha): 0
- Herbicidal activity (0-100 scale) TRZAW (60 g/Ha): 20
- Herbicidal activity (0-100 scale) TRZAW (125 g/Ha): 30
- Herbicidal activity (0-100 scale) TRZAW (250 g/Ha): 60
- Herbicidal activity (0-100 scale) TRZAW (500 g/Ha): 70
- Herbicidal activity (0-100 scale) VERPE (15 g/Ha): 70
- Herbicidal activity (0-100 scale) VERPE (30 g/Ha): 80
- Herbicidal activity (0-100 scale) VERPE (60 g/Ha): 90
- Herbicidal activity (0-100 scale) VERPE (125 g/Ha): 90
- Herbicidal activity (0-100 scale) VERPE (250 g/Ha): 100
- Herbicidal activity (0-100 scale) VERPE (500 g/Ha): 100
